Measurements reported in PubChem BioAssay (NCI).
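Five compound concentrations were applied to cells in 96-well plates for 48 hours; endpoints were derived by simple linear interpolation of the resulting dose-response curve. The concentration for full growth arrest is given as TGI.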

How the values were obtained:
Experiment in all cases: NCI tumour cell line growth inhibition, 48 h
[1] = system: 786-0 renal
[2] = system: A549 NSCLC
[3] = system: ACHN renal
[4] = system: BT-549 breast
[5] = system: CCRF-CEM leukemia
[6] = system: COLO 205 colon
[7] = system: DU-145 prostate
[8] = system: EKVX NSCLC
[9] = system: HCC-2998 colon
[10] = system: HCT-116 colon
[11] = system: HCT-15 colon
[12] = system: HOP-62 NSCLC
[13] = system: HOP-92 NSCLC
[14] = system: HT29 colon
[15] = system: IGROV1 ovarian
[16] = system: K-562 leukemia
[17] = system: KM12 colon
[18] = system: LOX IMVI melanoma
[19] = system: M14 melanoma
[20] = system: MCF7 breast
[21] = system: MDA-MB-231 breast
[22] = system: MDA-MB-435
[23] = system: MDA-N
[24] = system: MOLT-4 leukemia
[25] = system: NCI-H23 lung
[26] = system: NCI-H522 lung
[27] = system: NCI/ADR-RES ovarian
[28] = system: OVCAR-3 ovarian
[29] = system: OVCAR-4 ovarian
[30] = system: OVCAR-5 ovarian
[31] = system: OVCAR-8 ovarian
[32] = system: PC-3 prostate
[33] = system: RPMI-8226 leukemia
[34] = system: RXF 393 renal
[35] = system: SF-268 CNS
[36] = system: SF-295 CNS
[37] = system: SF-539 CNS
[38] = system: SK-MEL-2 melanoma
[39] = system: SK-MEL-28 melanoma
[40] = system: SK-MEL-5 melanoma
[41] = system: SK-OV-3 ovarian
[42] = system: SN12C renal
[43] = system: SNB-19 CNS
[44] = system: SNB-75 CNS
[45] = system: SW-620 colon
[46] = system: TK-10 renal
[47] = system: U251 CNS
[48] = system: UACC-257 melanoma
[49] = system: UACC-62 melanoma
[50] = system: UO-31 renal
[51] = system: A498 renal
[52] = system: CAKI-1 renal
[53] = system: HL-60(TB) leukemia
[54] = system: MALME-3M melanoma
[55] = system: NCI-H460 lung
[56] = system: SR leukemia
[57] = system: T-47D breast
[58] = system: HS 578T breast
[59] = system: NCI-H226 lung

Question: What does the source list for CCOC(=O)N/N=C(/N)Cc1ccc(Cl)cc1?
Answer: TGI [1]: > 100 µM; TGI [2]: > 100 µM; TGI [3]: > 100 µM; TGI [4]: > 100 µM; TGI [5]: > 100 µM; TGI [6]: > 100 µM; TGI [7]: > 100 µM; TGI [8]: > 100 µM; TGI [9]: > 100 µM; TGI [10]: > 100 µM; TGI [11]: > 100 µM; TGI [12]: > 100 µM; TGI [13]: > 100 µM; TGI [14]: > 100 µM; TGI [15]: > 100 µM; TGI [16]: > 100 µM; TGI [17]: > 100 µM; TGI [18]: > 100 µM; TGI [19]: > 100 µM; TGI [20]: > 100 µM; TGI [21]: > 100 µM; TGI [22]: > 100 µM; TGI [23]: > 100 µM; TGI [24]: > 100 µM; TGI [25]: > 100 µM; TGI [26]: > 100 µM; TGI [27]: > 100 µM; TGI [28]: > 100 µM; TGI [29]: > 100 µM; TGI [30]: > 100 µM; TGI [31]: > 100 µM; TGI [32]: > 100 µM; TGI [33]: > 100 µM; TGI [34]: > 100 µM; TGI [35]: > 100 µM; TGI [36]: > 100 µM; TGI [37]: > 100 µM; TGI [38]: > 100 µM; TGI [39]: > 100 µM; TGI [40]: > 100 µM; TGI [41]: > 100 µM; TGI [42]: > 100 µM; TGI [43]: > 100 µM; TGI [44]: > 100 µM; TGI [45]: > 100 µM; TGI [46]: > 100 µM; TGI [47]: > 100 µM; TGI [48]: > 100 µM; TGI [49]: > 100 µM; TGI [50]: > 100 µM

Question: What does the source list for COc1cc(O)c2c(=O)c(O)c(-c3ccc(O)c(O)c3)oc2c1?
Answer: TGI [51]: 14.9 µM; TGI [2]: 50.3 µM; TGI [3]: 24.9 µM; TGI [52]: 15.6 µM; TGI [5]: 33 µM; TGI [6]: 32.5 µM; TGI [7]: 25.5 µM; TGI [8]: > 100 µM; TGI [9]: 34.1 µM; TGI [10]: 45.5 µM; TGI [11]: > 100 µM; TGI [53]: 12.8 µM; TGI [12]: 63.2 µM; TGI [13]: 45.1 µM; TGI [14]: 48.4 µM; TGI [15]: > 100 µM; TGI [16]: > 100 µM; TGI [18]: 31.9 µM; TGI [19]: 42.6 µM; TGI [54]: 69.3 µM; TGI [20]: 60.7 µM; TGI [21]: 95.8 µM; TGI [22]: 85.5 µM; TGI [23]: > 100 µM; TGI [24]: > 100 µM; TGI [55]: 20.6 µM; TGI [26]: 25.5 µM; TGI [27]: 32.9 µM; TGI [28]: 21.8 µM; TGI [29]: 37.6 µM; TGI [30]: 47.8 µM; TGI [31]: 75.9 µM; TGI [32]: > 100 µM; TGI [33]: > 100 µM; TGI [35]: 73.7 µM; TGI [36]: 72.3 µM; TGI [39]: > 100 µM; TGI [40]: 58.6 µM; TGI [41]: 56.9 µM; TGI [43]: > 100 µM; TGI [56]: > 100 µM; TGI [45]: 53.7 µM; TGI [57]: > 100 µM; TGI [46]: 63.1 µM; TGI [47]: 24.7 µM; TGI [48]: 46.1 µM; TGI [49]: > 100 µM; TGI [50]: 42.1 µM

Question: How did the TGI [1] turn out when COc1ccc(-c2cc(-c3ccc(Nc4ccnc5cc(C(F)(F)F)ccc45)cc3)nc(N)c2C#N)c2ccccc12 was run?
Answer: > 100 µM

Question: What about the TGI [51] of the same compound?
Answer: > 100 µM

Question: And the TGI [2]?
Answer: > 100 µM

Question: What about the TGI [3] of the same compound?
Answer: > 100 µM

Question: And the TGI [4]?
Answer: > 100 µM

Question: And the TGI [52]?
Answer: > 100 µM

Question: And the TGI [6]?
Answer: > 100 µM

Question: And the TGI [7]?
Answer: > 100 µM

Question: And the TGI [8]?
Answer: > 100 µM

Question: What about the TGI [9] of the same compound?
Answer: > 100 µM

Question: And the TGI [10]?
Answer: > 100 µM

Question: What about the TGI [11] of the same compound?
Answer: > 100 µM

Question: What about the TGI [53] of the same compound?
Answer: > 100 µM

Question: And the TGI [12]?
Answer: > 100 µM

Question: What about the TGI [13] of the same compound?
Answer: > 100 µM

Question: And the TGI [58]?
Answer: > 100 µM

Question: What about the TGI [17] of the same compound?
Answer: > 100 µM

Question: And the TGI [18]?
Answer: > 100 µM

Question: And the TGI [19]?
Answer: > 100 µM

Question: What about the TGI [54] of the same compound?
Answer: > 100 µM

Question: What about the TGI [20] of the same compound?
Answer: > 100 µM

Question: What about the TGI [21] of the same compound?
Answer: > 100 µM

Question: What about the TGI [22] of the same compound?
Answer: > 100 µM

Question: What about the TGI [24] of the same compound?
Answer: > 100 µM

Question: And the TGI [25]?
Answer: > 100 µM

Question: And the TGI [55]?
Answer: > 100 µM

Question: What about the TGI [27] of the same compound?
Answer: > 100 µM

Question: And the TGI [28]?
Answer: > 100 µM

Question: What about the TGI [29] of the same compound?
Answer: > 100 µM

Question: And the TGI [30]?
Answer: > 100 µM

Question: And the TGI [32]?
Answer: > 100 µM

Question: And the TGI [33]?
Answer: > 100 µM

Question: And the TGI [34]?
Answer: > 100 µM

Question: And the TGI [35]?
Answer: > 100 µM

Question: And the TGI [36]?
Answer: > 100 µM

Question: And the TGI [37]?
Answer: > 100 µM

Question: And the TGI [38]?
Answer: > 100 µM

Question: And the TGI [40]?
Answer: > 100 µM

Question: And the TGI [41]?
Answer: > 100 µM

Question: And the TGI [43]?
Answer: > 100 µM

Question: And the TGI [44]?
Answer: > 100 µM

Question: And the TGI [56]?
Answer: > 100 µM

Question: What about the TGI [45] of the same compound?
Answer: > 100 µM

Question: What about the TGI [57] of the same compound?
Answer: > 100 µM

Question: What about the TGI [46] of the same compound?
Answer: > 100 µM

Question: What about the TGI [47] of the same compound?
Answer: > 100 µM

Question: And the TGI [49]?
Answer: > 100 µM

Question: And the TGI [50]?
Answer: > 100 µM

Question: Which results are given for O=C(c1ccccc1)n1c2ccc(Br)cc2c2nc3ccccc3nc21?
Answer: TGI [1]: > 100 µM; TGI [3]: > 100 µM; TGI [4]: > 100 µM; TGI [52]: > 100 µM; TGI [5]: > 100 µM; TGI [6]: > 100 µM; TGI [7]: > 100 µM; TGI [8]: > 100 µM; TGI [9]: > 100 µM; TGI [10]: > 100 µM; TGI [11]: > 100 µM; TGI [53]: > 100 µM; TGI [12]: > 100 µM; TGI [13]: > 100 µM; TGI [14]: > 100 µM; TGI [15]: > 100 µM; TGI [16]: > 100 µM; TGI [17]: > 100 µM; TGI [18]: > 100 µM; TGI [19]: > 100 µM; TGI [54]: > 100 µM; TGI [20]: > 100 µM; TGI [21]: > 100 µM; TGI [22]: > 100 µM; TGI [23]: > 100 µM; TGI [24]: > 100 µM; TGI [59]: > 100 µM; TGI [25]: > 100 µM; TGI [55]: > 100 µM; TGI [26]: > 100 µM; TGI [27]: > 100 µM; TGI [28]: > 100 µM; TGI [29]: > 100 µM; TGI [30]: > 100 µM; TGI [31]: > 100 µM; TGI [32]: > 100 µM; TGI [33]: > 100 µM; TGI [34]: > 100 µM; TGI [35]: > 100 µM; TGI [36]: > 100 µM; TGI [37]: > 100 µM; TGI [38]: > 100 µM; TGI [39]: > 100 µM; TGI [40]: > 100 µM; TGI [42]: > 100 µM; TGI [43]: > 100 µM; TGI [44]: > 100 µM; TGI [56]: > 100 µM; TGI [45]: > 100 µM; TGI [46]: > 100 µM; TGI [47]: > 100 µM; TGI [48]: > 100 µM; TGI [49]: > 100 µM; TGI [50]: > 100 µM
